Experimental data reported in PMC8037530, “Synthesis and Hybrid SAR Property Modeling of Novel Cholinesterase Inhibitors” (International Journal of Molecular Sciences, 2021).
Where two headings read alike, the source gives them in different places.

Experiments:
[1] = target: T1, AChE from electric eel (Electrophorus electricus) (Electrophorus electricus, UniProt O42275); experiment: In vitro AChE inhibition, modified Ellman's method; type: biochemical
T1 construct: purchased Sigma, St. Louis, MO, USA
T1 sequence (O42275 24-633): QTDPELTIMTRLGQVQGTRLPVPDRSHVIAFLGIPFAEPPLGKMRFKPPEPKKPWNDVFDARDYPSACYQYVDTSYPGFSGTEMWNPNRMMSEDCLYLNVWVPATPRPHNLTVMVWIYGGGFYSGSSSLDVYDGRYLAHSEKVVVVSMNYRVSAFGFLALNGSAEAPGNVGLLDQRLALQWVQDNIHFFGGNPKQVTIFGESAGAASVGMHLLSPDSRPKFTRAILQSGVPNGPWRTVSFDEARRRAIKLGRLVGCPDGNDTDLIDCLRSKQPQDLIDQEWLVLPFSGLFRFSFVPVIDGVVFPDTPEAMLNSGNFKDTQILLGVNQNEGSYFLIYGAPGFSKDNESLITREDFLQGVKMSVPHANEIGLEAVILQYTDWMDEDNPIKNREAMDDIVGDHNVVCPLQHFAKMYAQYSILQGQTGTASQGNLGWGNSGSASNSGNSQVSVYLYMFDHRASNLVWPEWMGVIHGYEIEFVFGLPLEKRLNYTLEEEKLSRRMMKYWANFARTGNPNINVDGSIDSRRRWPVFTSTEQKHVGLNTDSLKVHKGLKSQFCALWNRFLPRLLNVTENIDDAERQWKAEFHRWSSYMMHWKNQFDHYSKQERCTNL
Method: (§1) The ability of all the prepared compounds to inhibit AChE from electric eel (Electrophorus electricus) and BChE from equine serum (both purchased from Sigma, St. Louis, MO, USA) was determined in vitro using a modified Ellman’s method, as described in detail elsewhere. This is a simple, rapid, and direct method to determine the SH and -S-S- group content in proteins. The enzyme activity is measured indirectly by quantifying the concentration of the 5-thio-2-nitrobenzoic acid ion formed in the reaction between the thiol reagent 5,5’-dithiobis-2nitrobenzoic acid (DTNB) and thiocholine, which is a product of acetylthiocholine hydrolysis catalyzed by cholinesterases. The effectiveness of the tested inhibitors is expressed as the IC50 values.
(§2) The enzyme activity in the final reaction mixture (2 mL) was 0.2 U/mL, the concentration of the substrate (acetylthiocholine or butyrythiocholine) was 40 µM, and the concentration of DTNB was 0.1 mM for all reactions. All reactions were carried out at 25 °C in the presence of phosphate-buffered saline (0.1 M, pH 7.4) in a glass cuvette with a 1 cm optical path. All the studied inhibitors were dissolved in DMSO (concentration 0.01 M) and then diluted in demineralized water as necessary. […] All measurements were carried out in triplicate, and the average values of the reaction rate (v0—reaction in the absence of the inhibitor, vi—reaction in the presence of the inhibitor) were used for construction of the dependence v0/vi vs. concentration of the inhibitor.

BChE from equine serum = target: T2, BChE from equine serum (Equus caballus, UniProt P81908); experiment: In vitro BChE inhibition, modified Ellman's method; type: biochemical; settings: for SI (index selectivity) = IC50 (AChE)/IC50 (BChE): ratio IC50 AChE/IC50 BChE
T2 construct: BChE from equine serum; purchased Sigma, St. Louis, MO, USA; host or cells: equine serum
T2 sequence (P81908 whole entry): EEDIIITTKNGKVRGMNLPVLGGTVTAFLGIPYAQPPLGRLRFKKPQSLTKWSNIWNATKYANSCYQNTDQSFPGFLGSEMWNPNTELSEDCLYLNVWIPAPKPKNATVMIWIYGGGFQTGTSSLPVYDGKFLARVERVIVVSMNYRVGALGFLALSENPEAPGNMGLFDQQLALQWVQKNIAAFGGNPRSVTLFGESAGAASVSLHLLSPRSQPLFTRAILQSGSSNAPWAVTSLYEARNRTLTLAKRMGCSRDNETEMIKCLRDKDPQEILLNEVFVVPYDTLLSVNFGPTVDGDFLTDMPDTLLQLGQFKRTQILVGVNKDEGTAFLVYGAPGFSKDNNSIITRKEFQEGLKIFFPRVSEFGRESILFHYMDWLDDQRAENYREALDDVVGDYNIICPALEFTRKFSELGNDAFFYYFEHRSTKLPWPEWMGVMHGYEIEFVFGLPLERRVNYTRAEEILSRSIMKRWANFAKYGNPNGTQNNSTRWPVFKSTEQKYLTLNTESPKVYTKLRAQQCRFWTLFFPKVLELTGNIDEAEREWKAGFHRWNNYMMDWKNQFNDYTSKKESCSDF
Method: as §1, §2

[2] = Determination of lipophilicity by RP-HPLC (capacity factor k); type: physicochemical; settings: C18, isocratic MeOH 72%/H2O 28%, 40 °C
Method: The lipophilicity of all the target compounds was investigated by means of RP-HPLC determination of capacity factors k with a subsequent calculation of log k. The retention times of individual compounds were determined under isocratic conditions with methanol as an organic modifier in the mobile phase using end-capped non-polar C18 stationary RP columns.
The HPLC separation system Agilent 1200 series equipped with a DAD SL (Agilent Technologies) was used. A chromatographic column Symmetry® C18 5 μm, 4.6 × 250 mm, Part No. W21751W016 (Waters Corp., Milford, MA, USA) was applied. The HPLC separation process was monitored by the ChemStation for LC 3D chromatography software (Agilent Technologies). Isocratic elution by a mixture of MeOH p.a. (72%) and H2O-HPLC Mili-Q grade (28%) as a mobile phase was used for the determination of the capacity factor k. The total flow of the column was 1.0 mL/min, injection 20 μL, column temperature 40 °C, and sample temperature 10 °C. The detection wavelength of 210 nm was chosen. A KI methanolic solution was used for the determination of the dead times (tD). Retention times (tR) were measured in minutes. The capacity factors k were calculated according to the formula k = (tR − tD)/tD, where tR is the retention time of the solute and tD is the dead time obtained using an unretained analyte. Each experiment was repeated three times.

Row | Structure (SMILES) | IC50 ([1]; mean ± SD, n = 3, electric eel AChE, 25 °C, pH 7.4, read-out: IC50 AChE) | IC50 [1] | IC50 (BChE from equine serum) | SI (index selectivity) = IC50 (AChE)/IC50 (BChE) (BChE from equine serum) | log k [2]
1 | O=C(Nc1ccc(C(=O)Nc2ccccc2OC(F)(F)F)c(O)c1)OCc1ccccc1 | 36.1 µM |  |  |  | 
2 | O=C(Nc1ccc(C(=O)O)c(O)c1)OCc1ccccc1 [CbzPAS, 4-{[(Benzyloxy)carbonyl]amino}-2-hydroxybenzoic acid, reference compound] |  | 58.1 ± 1.04 µM | 137 ± 21.8 µM | 0.42 | 
3 | O=C(Nc1ccc(C(=O)Nc2ccccc2)c(O)c1)OCc1ccccc1 [Compound 1, Benzyl[3-hydroxy-4-(phenylcarbamoyl)phenyl]carbamate] |  | 65.2 ± 2.24 µM | 175 ± 5.85 µM | 0.37 | 0.1160
4 | COc1cccc(NC(=O)c2ccc(NC(=O)OCc3ccccc3)cc2O)c1 [Compound 3, Benzyl{3-hydroxy-4-[(3-methoxyphenyl)carbamoyl]phenyl}carbamate] |  | 69.3 ± 2 µM | 362 ± 8.12 µM | 0.19 | 0.1280
5 | COc1ccc(NC(=O)c2ccc(NC(=O)OCc3ccccc3)cc2O)cc1 [Compound 4, Benzyl{3-hydroxy-4-[(4-methoxyphenyl)carbamoyl]phenyl}carbamate] |  | 57.49 ± 0.08 µM | 154 ± 6.09 µM | 0.37 | 0.1176
6 | Cc1cccc(NC(=O)c2ccc(NC(=O)OCc3ccccc3)cc2O)c1 [Compound 5, Benzyl{3-hydroxy-4-[(3-methylphenyl)carbamoyl]phenyl}carbamate] |  | 70.2 ± 1.7 µM | 167 ± 10.2 µM | 0.42 | 0.2725
7 | O=C(Nc1ccc(C(=O)Nc2ccccc2F)c(O)c1)OCc1ccccc1 [Compound 6, Benzyl{4-[(2-fluorophenyl)carbamoyl]-3-hydroxyphenyl}carbamate] |  | 50.07 ± 0.06 µM | 70.8 ± 5.61 µM | 0.71 | 0.3577
8 | O=C(Nc1ccc(C(=O)Nc2cccc(F)c2)c(O)c1)OCc1ccccc1 [Compound 7, Benzyl{4-[(3-fluorophenyl)carbamoyl]-3-hydroxyphenyl}carbamate] |  | 66.6 ± 0.14 µM | 197.6 ± 1.36 µM | 0.34 | 0.2303
9 | O=C(Nc1ccc(C(=O)Nc2ccc(F)cc2)c(O)c1)OCc1ccccc1 [Compound 8, Benzyl{4-[(4-fluorophenyl)carbamoyl]-3-hydroxyphenyl}carbamate] |  | 47.4 ± 0.61 µM | 105.8 ± 0.43 µM | 0.45 | 0.3924
10 | O=C(Nc1ccc(C(=O)Nc2ccccc2Cl)c(O)c1)OCc1ccccc1 [Compound 9, Benzyl{4-[(2-chlorophenyl)carbamoyl]-3-hydroxyphenyl}carbamate] |  | 41.86 ± 0.15 µM | 140.1 ± 0.35 µM | 0.30 | 0.5188
11 | O=C(Nc1ccc(C(=O)Nc2cccc(Cl)c2)c(O)c1)OCc1ccccc1 [Compound 10, Benzyl{4-[(3-chlorophenyl)carbamoyl]-3-hydroxyphenyl}carbamate] |  | 61.6 ± 1.74 µM | 204 ± 7.49 µM | 0.30 | 0.6411
12 | O=C(Nc1ccc(C(=O)Nc2ccc(Cl)cc2)c(O)c1)OCc1ccccc1 [Compound 11, Benzyl{4-[(4-chlorophenyl)carbamoyl]-3-hydroxyphenyl}carbamate] |  | 78.2 ± 1.58 µM | 139 ± 6.86 µM | 0.56 | 0.6399
13 | O=C(Nc1ccc(C(=O)Nc2ccccc2C(F)(F)F)c(O)c1)OCc1ccccc1 [Compound 12, Benzyl(3-hydroxy-4-{[2-(trifluoromethyl)phenyl]carbamoyl}phenyl)carbamate] |  | 56.4 ± 1.26 µM | 33.6 ± 0.71 µM | 1.68 | 0.4318
